Common to all, as to format: cell-based
The test system of one assay is HeLa cells. In words: Cytoprotection from ER stress (tunicamycin), cell viability by WST-8. Details: key to Cytoprotection from ER stress compared to guanabenz: +: lower cytoprotective effect compared to Guanabenz; ++: similar cytoprotective effect compared to Guanabenz; +++: higher cytoprotective effect compared to Guanabenz. The settings on record: HeLa cells, 6 hour exposure to tunicamycin 5 μg/mL, compounds 0.5-10 μM, viability 48 h or 72 h. The source says: Cytoprotection against ER stress can be measured by a suitable assay. For example, cytoprotection can be measured in HeLa cells in which ER stress is elicited by the addition of media containing tunicamycin, a mixture of homologous nucleoside antibiotics that inhibits the UDP-HexNAc: polyprenol-P HexNAc-1-P family of enzymes and is used to induce unfolded protein response. Cell viability can be detected in the presence and absence of inhibitor compounds after a set period of time, by measuring the reduction of WST-8 into formazan using a standard cell viability kit (such as Cell Viability Counting Kit-8 from Dojindo). Cytoprotection from ER stress is measured in terms of the percentage increase in viable cells (relative to control) after ER stress. Further details of a suitable assay are set forth in the accompanying Examples section.
This assay is described in Tsaytler et al. (Science 2011). HeLa Cells were cultured in Eagle's Minimum Essential Medium (EMEM) supplemented with Glutamine, Sodium Pyruvate, Non-Essential Amino Acids, Penicillin and Streptomycin containing 10% Foetal Bovine Serum (FBS), at 37° C. in 5% CO2 atmosphere. Cells were plated in 96 well plates at a density of 17,000 cells/mL the day before the treatment. ER stress was elicited by addition of 5 μg/mL tunicamycin (Sigma-Aldrich) together with PPP1R15A inhibitors (0.5-10 μM). Media were changed 6h later with fresh media and the cytoprotection was maintained by the addition of PPP1R15A inhibitors (0.5-10 μM). Cell viability was assessed by measuring the reduction of WST-8 into formazan using Cell Counting Kit-8 (Sigma) according to the supplier's recommendation, 48 h or 72h after tunicamycin treatment. Cytoprotection from ER stress is measured in terms of cytoprotective potency effect compared to the reference compound Guanabenz (Tsaytler et al., Science 2011) after ER stress: • ‘+’ no cytoprotective effect; • ‘+’ lower cytoprotective effect compared to Guanabenz; • ‘++’ similar cytoprotective effect compared to Guanabenz; • ‘+++’ higher cytoprotective effect compared to Guanabenz.
Table 1 summarizes the results of cytoprotective effect of different compounds of the invention, compared to guanabenz, after the stress induced by a 6 hour exposure of tunicamycin.
(In general: Formazan colour is commonly taken as a measure of viable cells.)

Assay [1] deals with rotenone injured primary mesencephalic rat neurons. As to the kind of experiment: In vitro Parkinson's disease model: rotenone injured primary mesencephalic rat neurons. The settings on record: rotenone 10 nM, 24 hours; total number of TH positive neurons. How it is done: Rat dopaminergic neurons were cultured as described by Schinelli et al., (1988 J. Neurochem 50 pp1900-07) and Visanji et al., (2008 FASEB J. 22(7) pp2488-97). Briefly, the midbrains obtained from 15-day old rat embryos (Janvier Labs, France) were dissected under a microscope. The embryonic midbrains were removed and placed in ice-cold medium of Leibovitz (L15, Pan Biotech, Batch: 9310614) containing 2% of Penicillin-Streptomycin (PS, Pan Biotech, Batch: 1451013) and 1% of bovine serum albumin (BSA, Pan Biotech, Batch: h140603). The ventral portion of the mesencephalic flexure, a region of the developing brain rich in dopaminergic neurons, was used for the cell preparations.
The midbrains were dissociated by trypsinisation for 20 min at 37° C. (Trypsin 0.05% EDTA 0.02%, PanBiotech, Batch: 5890314). The reaction was stopped by the addition of Dulbecco's modified Eagle's medium (DMEM, PanBiotech, Batch: 1300714) containing DNAase I grade II (0.1 mg/ml, PanBiotech, Batch: H140508) and 10% of foetal calf serum (FCS, Gibco, Batch: 41Q7218K). Cells were then mechanically dissociated by 3 passages through a 10 ml pipette. Cells were then centrifuged at 180×g for 10 min at +4° C. on a layer of BSA (3.5%) in L15 medium. The supernatant was discarded and the cell pellets were re-suspended in a defined culture medium consisting of Neurobasal (Invitrogen, Batch: 1636133) supplemented with B27 (2%, Invitrogen, Batch: 1660670), L-glutamine (2 mM, PanBiotech, Batch: 8150713) and 2% of PS solution and 10 ng/ml of Brain-derived neurotrophic factor (BDNF, PanBiotech, Batch: H140108) and 1 ng/ml of Glial-Derived Neurotrophic Factor (GDNF, Pan Biotech, Batch: H130917). Viable cells were counted in a Neubauer cytometer using the trypan blue exclusion test. The cells were seeded at a density of 40 000 cells/well in 96 well-plates pre-coated with poly-L-lysine (Corning Biocoat, Batch: 6614022) and maintained in a humidified incubator at 37° C. in 5% CO2/95% air atmosphere. Half of the medium was changed every 2 days with fresh medium.
On day 6 of culture, the medium was removed and fresh medium was added, without or with rotenone (Sigma, Batch: 021M2227V) at 10 nM diluted in control medium, 3 wells per condition were assessed. […]
The immunolabeled cultures were automatically examined with ImageXpress (Molecular device USA). For each condition, 20 automatically fields per well (representing ˜80% of the total surface of the well) from 3 wells were analyzed. The total number of TH neurons was automatically analyzed using Custom module editor (Molecular Devices, USA). […] All values were expressed as mean +/−SEM (s.e. mean) of the 1 culture (n=3 wells per condition per culture).

The subject of assay [2] is mouse embryonic fibroblasts lipofected with poly I:C. As to the kind of experiment: In vitro inflammation/infection model: poly I:C induced mouse embryonic fibroblasts. The settings on record: 25 μM, 6h, IFN-beta ELISA in culture supernatants. The protocol:
Mouse Embryonic Fibroblasts (MEFs) were lipofected with poly I:C and treated with […] compounds of the invention (25 μM) for 6h. After 6h of culture, elF2alpha-phosphorylation (elF2a-P) and PPP1R15A (GADD34) expression was monitored by western blotting, while type-1 Interferon(IFN)-beta production was quantified in culture supernatants by ELISA. Control (nt) and poly I:C/DMSO are respectively negative and positive controls. Poly I:C (polyinosinic:polycytidylic acid or polyinosinic-polycytidylic acid sodium salt) is an immunostimulant used to simulate viral infections. Poly I:C which is structurally similar to double-stranded RNA, is known to interact with toll-like receptor 3 which is expressed in the intracellular compartments of B-cells and dendritic cells. Guanabenz (25 μM) was used as reference inhibitory compound.
MEFs were cultured in DMEM, 10% FCS (HyClone, Perbio), 100 units/ml penicillin, 100 μg/ml streptomycin, 2 mM glutamine, 1× MEM non-essential amino acids and 50 μM 2-mercaptoethanol. MEFS were treated for the indicated time with 10 μg/ml poly I:C (InvivoGen) in combination with lipofectamine 2000 (Invitrogen).
Cells were lysed in 1% Triton X-100, 50 mM Hepes, 10 mM NaCl, 2.5 mM MgCl2, 2 mM EDTA, 10% glycerol, supplemented with Complete Mini Protease Inhibitor Cocktail Tablets (Roche). Protein quantification was performed using the BCA Protein Assay (Pierce). 25-50 μg of Triton X-100-soluble material was loaded on 2%-12% gradient or 8% SDS-PAGE before immunoblotting and chemi-luminescence detection (SuperSignal West Pico Chemi-luminescent Substrate, Pierce). Rabbit polyclonal antibodies recognizing GADD34 (C-19) were from Santa Cruz Biotechnology and anti-elF2alpha[pS^52] were from Invitrogen.
IFN-beta quantification in culture supernatant was performed using the Mouse Interferon Beta ELISA kit (PBL Interferon Source) according to manufacturer instructions.
Normal response of MEFs to poly I:C is characterized by PPP1R15A expression, increase in elF2alpha-P (variable in time and related to the levels PPP1R15A expression) mediated by PKR activation and type-I IFN production (range 500 to 700 pg/ml). Knock out PPP1R15A MEFs are unable to produce this cytokine in response to poly I:C.
The potency of compounds of the invention to inhibit PPP1R15A was evaluated by measuring the increase of elF2alpha phosphorylation, the decrease of PPP1R15A expression due to its own pharmacological inhibition resulting in general protein synthesis inhibition and type-I IFN production.

In another assay the target is T1, human alpha2A receptor (Homo sapiens, UniProt P08913).
T1 construct: CHO cells endogenously expressing human alpha2A receptor; endogenous in cells; host or cells: CHO cells
T1 sequence (P08913 1-465): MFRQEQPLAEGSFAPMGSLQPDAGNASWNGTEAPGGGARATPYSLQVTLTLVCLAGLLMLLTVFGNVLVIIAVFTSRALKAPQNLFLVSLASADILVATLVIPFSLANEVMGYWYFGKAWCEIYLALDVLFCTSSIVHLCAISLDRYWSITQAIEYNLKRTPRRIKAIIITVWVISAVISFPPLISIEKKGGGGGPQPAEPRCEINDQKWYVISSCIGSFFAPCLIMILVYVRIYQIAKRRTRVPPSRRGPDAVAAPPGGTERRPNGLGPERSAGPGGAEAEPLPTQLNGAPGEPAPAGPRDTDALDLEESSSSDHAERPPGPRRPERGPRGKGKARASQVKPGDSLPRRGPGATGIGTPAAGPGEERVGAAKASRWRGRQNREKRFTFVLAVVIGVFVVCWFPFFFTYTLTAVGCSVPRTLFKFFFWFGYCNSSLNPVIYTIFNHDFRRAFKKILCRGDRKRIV
As to the kind of experiment: Functional GPCR assay for adrenergic α2A receptor (CellKey detection method). The note with it: agonist activity, CHO cells expressing human alpha2A receptor, impedance (CellKey); read-out: Functional adrenergic alpha2 receptor assay EC50. The protocol: The agonist activity of compounds was evaluated on CHO cells […] expressing human alpha2A receptor and was determined by measuring their effects on impedance modulation using the CellKey detection method. Cells were seeded onto 96-well plate at density of 6×10^4 cells/well in HBSS buffer (Invitrogen)+20 mM HEPES (Invitrogen) with 0.1% BSA and are allowed to equilibrate for 60 min at 28° C. before the start of the experiment. Plates were placed onto the system and measurements were made at a temperature of 28° C. Solutions were added simultaneously to all 96 wells using an integrated fluidics system: HBSS (basal control), reference agonist at 100 nM (stimulated control), reference agonist (EC50 determination) or the test compounds. Impedance measurements are monitored for 10 minutes after ligand addition. The standard reference agonist is epinephrine, which is tested in each experiment at several concentrations to generate a concentration-response curve from which its EC50 value is calculated.
Dose-response data from test compounds were analysed with Hill software using non-linear regression analysis of the concentration-response curves generated with mean replicate values using Hill equation curve fitting.

As usually defined, the EC50 is the midpoint of the concentration-response curve.

As for `CS(=O)(=O)CCCO/N=C(\N)N/N=C/c1ccccc1Cl` [Compound 4, 2-(2-chlorobenzylidene)-N′-[3-(methylsulfonyl)propoxy]hydrazinecarboximidamide], the “Cytoprotection from ER stress compared to guanabenz” value in the assay with HeLa cells is listed as “++”. As for `C=CCO/N=C(\N)N/N=C/c1ccccc1Cl` [Compound 5, 2-(2-chlorobenzylidene)-N′-(prop-2-en-1-yloxy)hydrazinecarboximidamide], the “protection of rotenone injured primary mesencephalic rat neurons (FIG. 3)” value in assay [1] is reported as “dose dependent protection”. Besides, the “Cytoprotection from ER stress compared to guanabenz” value with HeLa cells is recorded as “+”. Turning to `N/C(=N\OCCO)N/N=C/c1ccccc1Cl` [Compound 6, 2-(2-chlorobenzylidene)-N′-(2-hydroxyethoxy)hydrazinecarboximidamide], in assay [2], the “prevention of type-I IFN production (FIG. 9)” value is recorded as “prevent type-I IFN production”. Besides, the concentration giving a half-maximal response (EC50) on human alpha2A receptor was over 33.3 µM. For the same compound, in the assay on HeLa cells, the “Cytoprotection from ER stress compared to guanabenz” value is “++”.

For the compound `CCCO/N=C(\N)N/N=C/c1c(Cl)cccc1Cl` [Compound 21, 2-(2,6-dichlorobenzylidene)-N-propoxyhydrazinecarboximidamide], the “Cytoprotection from ER stress compared to guanabenz” value in the assay with HeLa cells is “++”. Same read-out and setting: in the case of `CC(C)=CCONC(=N)N/N=C/c1ccccc1Cl` [Compound 14, 2-(2-chlorobenzylidene)-N′-[(3-methylbut-2-en-1-yl)oxy]hydrazinecarboximidamide] it was “++”. For the compound `CCCO/N=C(\N)N/N=C/c1c(F)cccc1Cl` [Compound 19, 2-(2-chloro-6-fluorobenzylidene)-N′-propoxyhydrazinecarboximidamide], the “Cytoprotection from ER stress compared to guanabenz” value with HeLa cells was “+++”. Consider `CCSCCONC(=N)N/N=C/c1ccccc1Cl` [Compound 15, 2-(2-chlorobenzylidene)-N-[2-(ethylsulfanyl)ethoxy]hydrazinecarboximidamide], for which the EC50 on human alpha2A receptor is over 33.3 µM. The “Cytoprotection from ER stress compared to guanabenz” value in the assay on HeLa cells is listed as “++”. For the compound `CCCO/N=C(\N)N/N=C/c1ccncc1Cl` [Compound 23, 2-[(3-chloropyridin-4-yl)methylidene]-N-propoxyhydrazinecarboximidamide], in the assay with HeLa cells, the “Cytoprotection from ER stress compared to guanabenz” value is “++”. Turning to `CCOCCONC(=N)N/N=C/c1ccccc1Cl` [Compound 13, 2-(2-chlorobenzylidene)-N-(2-ethoxyethoxy)hydrazinecarboximidamide], the EC50 on human alpha2A receptor was over 33.3 µM. In addition, in the assay on HeLa cells, the “Cytoprotection from ER stress compared to guanabenz” value was “++”.

For the origin of these results see patent US11084783B2, “O-alkyl-benzylideneguanidine derivatives and therapeutic use for the treatment of disorders associated with an accumulation of misfolded proteins” (INFLECTIS BIOSCIENCE, priority 2014, dated 2021).
